Laboratory results taken from paper PMC3761975 (Current drug safety, 2010).
Read-outs that look alike come from different tables or passages of the source.

What was measured:
[1] = tested on: CYP3A4; conditions: cited from earlier work
[2] = tested on: CYP2C9, CYP3A4; experiment: in vitro; conditions: human, pH 7.5
[3] = molecular target: T1, CYP2C9 (Homo sapiens, UniProt P11712); experiment: CYP2C9 fluorometric microtiter plate inhibition assay
[4] = molecular target: T2, CYP2D6 (Homo sapiens, UniProt P10635); experiment: CYP2D6 fluorometric microtiter plate inhibition assay
[5] = molecular target: T3, CYP3A4 (Homo sapiens, UniProt P08684); experiment: CYP3A4 fluorometric microtiter plate inhibition assay
[6] = molecular target: T4, CYP1A2 (Homo sapiens, UniProt P05177); experiment: CYP1A2 fluorometric microtiter plate inhibition assay
T4 sequence (P05177 1-516): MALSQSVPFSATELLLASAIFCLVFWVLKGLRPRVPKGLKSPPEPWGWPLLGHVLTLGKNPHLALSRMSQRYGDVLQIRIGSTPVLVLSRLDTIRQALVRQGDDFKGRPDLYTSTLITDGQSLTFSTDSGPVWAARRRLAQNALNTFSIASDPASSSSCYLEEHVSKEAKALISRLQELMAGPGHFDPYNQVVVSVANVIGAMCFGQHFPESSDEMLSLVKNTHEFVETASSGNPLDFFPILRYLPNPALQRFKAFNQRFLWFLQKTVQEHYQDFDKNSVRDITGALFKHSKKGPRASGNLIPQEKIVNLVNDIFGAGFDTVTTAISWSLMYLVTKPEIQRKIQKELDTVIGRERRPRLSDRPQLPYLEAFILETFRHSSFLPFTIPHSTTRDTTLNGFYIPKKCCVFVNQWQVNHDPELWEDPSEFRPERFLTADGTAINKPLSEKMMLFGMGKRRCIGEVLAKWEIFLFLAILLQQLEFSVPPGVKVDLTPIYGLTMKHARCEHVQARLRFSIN

[7] = tested on: CYP1A2, CYP2C9, CYP2D6, CYP3A4; experiment: CYP isozyme bioassays, results stated across several isozymes; conditions: human, pH 7.5
[8] = molecular target: T4, CYP1A2; conditions: recombinant enzyme
[9] = molecular target: T1, CYP2C9; conditions: recombinant enzyme
[10] = molecular target: T2, CYP2D6; conditions: recombinant enzyme
[11] = molecular target: T3, CYP3A4; conditions: recombinant enzyme
[12] = tested on: CYP 1A2; conditions: cited from earlier work
[13] = tested on: CYP 2D6; conditions: read-out: Literature IC50, CYP 2D6; published limits; cited from earlier work
[14] = tested on: CYP 2C9; conditions: read-out: Literature IC50, CYP 2C9; published limits; cited from earlier work

T3 sequence (P08684 whole entry): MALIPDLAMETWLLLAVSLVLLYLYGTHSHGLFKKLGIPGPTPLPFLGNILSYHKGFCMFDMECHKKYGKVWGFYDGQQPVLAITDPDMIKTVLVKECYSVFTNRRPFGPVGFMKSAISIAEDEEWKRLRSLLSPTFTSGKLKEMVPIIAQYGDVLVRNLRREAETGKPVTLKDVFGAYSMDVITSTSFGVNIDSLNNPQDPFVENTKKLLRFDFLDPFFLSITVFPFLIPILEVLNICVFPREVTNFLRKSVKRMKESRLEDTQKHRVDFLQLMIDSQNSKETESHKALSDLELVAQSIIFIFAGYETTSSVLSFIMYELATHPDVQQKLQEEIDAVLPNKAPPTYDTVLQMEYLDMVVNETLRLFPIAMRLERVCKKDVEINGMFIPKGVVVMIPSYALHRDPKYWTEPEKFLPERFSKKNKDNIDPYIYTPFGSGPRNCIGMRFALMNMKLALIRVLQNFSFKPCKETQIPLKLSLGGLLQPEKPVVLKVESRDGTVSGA
T1 sequence (P11712 whole entry): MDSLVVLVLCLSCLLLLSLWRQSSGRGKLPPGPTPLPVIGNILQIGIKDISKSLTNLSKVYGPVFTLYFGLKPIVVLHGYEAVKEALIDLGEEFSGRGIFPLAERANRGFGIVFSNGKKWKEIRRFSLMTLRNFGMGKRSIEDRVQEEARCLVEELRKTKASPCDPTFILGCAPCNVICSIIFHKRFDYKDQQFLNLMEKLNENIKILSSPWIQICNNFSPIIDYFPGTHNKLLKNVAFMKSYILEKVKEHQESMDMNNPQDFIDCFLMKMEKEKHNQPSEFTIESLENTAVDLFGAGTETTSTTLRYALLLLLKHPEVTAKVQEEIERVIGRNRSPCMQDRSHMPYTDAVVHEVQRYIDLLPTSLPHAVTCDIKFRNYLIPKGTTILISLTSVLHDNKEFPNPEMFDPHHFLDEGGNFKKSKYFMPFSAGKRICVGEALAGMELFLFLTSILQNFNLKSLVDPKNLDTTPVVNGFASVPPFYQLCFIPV
T2 sequence (P10635 whole entry): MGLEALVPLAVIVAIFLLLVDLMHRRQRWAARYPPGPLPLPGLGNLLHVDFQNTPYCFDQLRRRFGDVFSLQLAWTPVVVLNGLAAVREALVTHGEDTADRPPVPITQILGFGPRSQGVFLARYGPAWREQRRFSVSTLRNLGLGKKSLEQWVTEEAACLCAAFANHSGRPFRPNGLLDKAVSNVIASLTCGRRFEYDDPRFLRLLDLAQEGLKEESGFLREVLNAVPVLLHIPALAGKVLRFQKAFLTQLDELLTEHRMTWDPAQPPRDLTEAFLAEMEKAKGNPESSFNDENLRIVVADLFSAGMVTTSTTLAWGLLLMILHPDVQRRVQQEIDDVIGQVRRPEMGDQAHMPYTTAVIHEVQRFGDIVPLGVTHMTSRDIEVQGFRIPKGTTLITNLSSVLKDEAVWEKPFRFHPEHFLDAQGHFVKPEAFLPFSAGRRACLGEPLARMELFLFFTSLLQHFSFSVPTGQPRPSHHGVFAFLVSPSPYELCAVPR

CC(=O)O[C@@H]1C[C@@]23C[C@@]24CC[C@H](O[C@@H]2OC[C@@H](O)[C@H](O)[C@H]2O)C(C)(C)[C@@H]4CC[C@H]3[C@]2(C)C[C@@H]3O[C@]4(C[C@@H](C)[C@@H]3[C@@]12C)OC[C@@]1(C)O[C@@H]41 [26-deoxyactein]
IC50 ([1]; read-out: IC50 for CYP3A4 inhibition, Tsukamoto et al.): 100 µM

CC(=O)O[C@@H]1C[C@@]23C[C@@]24CC[C@H](O[C@@H]2OC[C@@H](O)[C@H](O)[C@H]2O)C(C)(C)[C@@H]4CC[C@H]3[C@]2(C)C[C@@H]3O[C@]4(C[C@@H](C)[C@@H]3[C@@]12C)O[C@H](O)[C@@]1(C)O[C@@H]41 [Actein, actein]
IC50 [2]: 16.9 to 33.8 µM
IC50 [3]: 25 µM
IC50 [4]: 51.1 µM
IC50 [5]: 35.2 µM
IC50 [6]: > 100 µM

COc1cc(/C=C/C(=O)O[C@H](C(=O)O)[C@](O)(Cc2ccc(O)c(O)c2)C(=O)O)ccc1O [CAA, Cimicifugic acid A]
IC50 [3]: 8.3 µM
IC50 [4]: 9 µM
IC50 [5]: 9.7 µM
IC50 [7]: 1.8 to 12.6 µM
IC50 [6]: 7.2 µM

COc1ccc(/C=C/C(=O)O[C@H](C(=O)O)[C@](O)(Cc2ccc(O)c(O)c2)C(=O)O)cc1O [CAB, Cimicifugic acid B]
IC50 [3]: 12.5 µM
IC50 [4]: 12.6 µM
IC50 [5]: 9.8 µM
IC50 [7]: 1.8 to 12.6 µM
IC50 [6]: 7.35 µM

CC(=O)O[C@@H]1C[C@@]23C[C@@]24CC[C@H](O[C@@H]2OC[C@@H](O)[C@H](O)[C@H]2O)C(C)(C)[C@@H]4CC[C@H]3[C@]2(C)C[C@@H]3O[C@@]4(C[C@@H](C)[C@@H]3[C@@]12C)OC[C@@]1(C)O[C@@H]41 [Deoyxactein, 23-epi-26-deoxyactein]
IC50 [8]: > 100 µM
IC50 [9]: 25.9 µM
IC50 [10]: 100 µM
IC50 [11]: 28.7 µM

O=C(/C=C/c1ccc(O)c(O)c1)O[C@H](C(=O)O)[C@](O)(Cc1ccc(O)c(O)c1)C(=O)O [Fukinolic acid, fukinolic acid]
IC50 [3]: 7.1 µM
IC50 [4]: 5.4 µM
IC50 [5]: 7.2 µM
IC50 [7]: 1.8 to 12.6 µM
IC50 [6]: 1.8 µM

CC(=O)N1CCN(c2ccc(OCC3COC(Cn4ccnc4)(c4ccc(Cl)cc4Cl)O3)cc2)CC1 (stereo not drawn) [Ketoconazole, ketoconazole]
IC50 ([1]; read-out: Literature IC50, CYP 3A4, published limits): […]

C=C[C@H]1C[N@@]2CC[C@H]1C[C@@H]2[C@@H](O)c1ccnc2ccc(OC)cc12 [Quindine, quinidine]
IC50 [13]: […]

Oc1ccc(/C=C/c2cc(O)cc(O)c2)cc1 [resveratrol]
IC50 ([12]; read-out: Inhibitory IC50 in CYP 1A2): 1890 nM
